Assay results from PubChem BioAssay AID330 (DTP/NCI, 2004).
Toxic doses and inconclusive results are not listed. Rule for the calls: active = survival T/C of 150% or more; inactive = T/C below 125% in these data. Peptide text beside a SMILES is read from it. * marks the point of attachment. Trt = c1ccc(C(c2ccccc2)(c2ccccc2)*)cc1; Cbz = O=C(OCc1ccccc1)*; Bn = c1ccc(C*)cc1; βAla = NCCC(=O)O

Test system: P388 leukemia ip, CD2F1 mice, survival T/C
Test: NCI In Vivo Anticancer Drug Screen. Data for tumor model P388 Leukemia (intraperitoneal) in CD2F1 (CDF1) mice
Conditions: endpoint: median survival time, higher = longer survival
Summary of the method: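 Mice carrying the transplanted tumor received test compound or vehicle. Survival was recorded in each group, and the value is the treated-group measurement divided by that of the vehicle-treated control group.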

[1] = dose: 6.25 mg/kg/injection, schedule: Q01DX005 (ip), vehicle: saline with Tween-80
[2] = dose: 12.5 mg/kg/injection, schedule: Q01DX005 (ip), vehicle: saline with Tween-80
[3] = dose: 50.0 mg/kg/injection, schedule: Q01DX005 (ip), vehicle: saline with Tween-80
[4] = dose: 25.0 mg/kg/injection, schedule: Q04DX003 (ip), vehicle: Klucel (hydroxypropylcellulose) (HPC)
[5] = dose: 50.0 mg/kg/injection, schedule: Q04DX003 (ip), vehicle: Klucel (hydroxypropylcellulose) (HPC)
[6] = dose: 100.0 mg/kg/injection, schedule: Q04DX003 (ip), vehicle: Klucel (hydroxypropylcellulose) (HPC)
[7] = dose: 4.0 mg/kg/injection, schedule: Q01DX009 (ip), vehicle: water
[8] = dose: 8.0 mg/kg/injection, schedule: Q01DX009 (ip), vehicle: water
[9] = dose: 16.0 mg/kg/injection, schedule: Q01DX009 (ip), vehicle: water
[10] = dose: 32.0 mg/kg/injection, schedule: Q01DX009 (ip), vehicle: water
[11] = dose: 64.0 mg/kg/injection, schedule: Q01DX009 (ip), vehicle: water
[12] = dose: 50.0 mg/kg/injection, schedule: Q01DX009 (ip), vehicle: saline with Tween-80
[13] = dose: 100.0 mg/kg/injection, schedule: Q01DX009 (ip), vehicle: saline with Tween-80
[14] = dose: 100.0 mg/kg/injection, schedule: Q01DX009 (ip), vehicle: saline
[15] = dose: 200.0 mg/kg/injection, schedule: Q01DX009 (ip), vehicle: saline
[16] = dose: 50.0 mg/kg/injection, schedule: Q01DX005 (ip), vehicle: Klucel (hydroxypropylcellulose) (HPC)
[17] = dose: 100.0 mg/kg/injection, schedule: Q01DX005 (ip), vehicle: Klucel (hydroxypropylcellulose) (HPC)
[18] = dose: 50.0 mg/kg/injection, schedule: Q01DX009 (ip), vehicle: saline

Measured: T/C

CNc1ncnc2c1ccn2C1OC(CO)C(O)C1O (centres undefined)
inactive: [1] 100 % of control | [2] 108 % of control | dose: 25.0 mg/kg/injection, schedule: Q01DX005 (ip), vehicle: saline with Tween-80 100 % of control

NSc1nc2ccccc2s1
inactive: dose: 100.0 mg/kg/injection, schedule: Q04DX003 (ip), vehicle: saline with Tween-80 100 % of control | dose: 200.0 mg/kg/injection, schedule: Q04DX003 (ip), vehicle: saline with Tween-80 100 % of control

CN1CCC(/C(=N/O)c2ccccc2)(c2ccccc2)CC1
inactive: dose: 50.0 mg/kg/injection, schedule: Q01DX005 (ip), vehicle: Klucel + Tween-80 98 % of control | dose: 100.0 mg/kg/injection, schedule: Q01DX005 (ip), vehicle: Klucel + Tween-80 91 % of control | dose: 200.0 mg/kg/injection, schedule: Q01DX005 (ip), vehicle: Klucel + Tween-80 91 % of control

CCN(CC)CCOc1ccc(C(O)(Cc2ccc(OC)cc2)c2ccccc2)cc1 (centres undefined)
inactive: [3] 101 % of control | dose: 100.0 mg/kg/injection, schedule: Q01DX005 (ip), vehicle: saline with Tween-80 92 % of control | dose: 200.0 mg/kg/injection, schedule: Q01DX005 (ip), vehicle: saline with Tween-80 92 % of control

O=Cc1ccc(NCCCN2CCN(CCCNc3ccc(C=O)c4sc5ccccc5c(=O)c34)CC2)c2c(=O)c3ccccc3sc12
inactive: dose: 1.56 mg/kg/injection, schedule: Q01DX005 (ip), vehicle: saline with Tween-80 107 % of control | dose: 3.13 mg/kg/injection, schedule: Q01DX005 (ip), vehicle: saline with Tween-80 101 % of control | [1] 95 % of control | [2] 99 % of control | [3] 88 % of control

CC(C)(C)OC(=O)NN=C1CCC(C(C)(C)C)CC1 (centres undefined)
inactive: [4] 100 % of control | [5] 95 % of control | [6] 100 % of control

CC(=O)OCC1OC2OC(C)(OC(C)C)OC2C(OC(C)=O)C1OC(C)=O (centres undefined)
inactive: [7] 106 % of control | [8] 102 % of control | [9] 100 % of control | [10] 99 % of control | dose: 50.0 mg/kg/injection, schedule: Q01DX009 (ip), vehicle: other 108 % of control | [11] 98 % of control | dose: 100.0 mg/kg/injection, schedule: Q01DX009 (ip), vehicle: other 108 % of control | dose: 200.0 mg/kg/injection, schedule: Q01DX009 (ip), vehicle: other 102 % of control | dose: 400.0 mg/kg/injection, schedule: Q01DX009 (ip), vehicle: other 102 % of control

C[n+]1ccccc1-c1nc(-c2cccc[n+]2C)nc(-c2cccc[n+]2C)n1
inactive: dose: 12.5 mg/kg/injection, schedule: Q01DX009 (ip), vehicle: Klucel (hydroxypropylcellulose) (HPC) 96 % of control | dose: 25.0 mg/kg/injection, schedule: Q01DX009 (ip), vehicle: Klucel (hydroxypropylcellulose) (HPC) 88 % of control

O=C1C2=C(Nc3ccccc3N2)OC1c1ccccc1Cl (centres undefined)
inactive: dose: 60.0 mg/kg/injection, schedule: Q01DX005 (ip), vehicle: Klucel (hydroxypropylcellulose) (HPC) 97 % of control | dose: 120.0 mg/kg/injection, schedule: Q01DX005 (ip), vehicle: Klucel (hydroxypropylcellulose) (HPC) 97 % of control

C=C(C)C1CC2=C(C(=O)OC)C=C(O2)C(C(=C)C)C2OC(=O)/C(=C\C1O)C2O (centres undefined)
inactive: dose: 4.0 mg/kg/injection, schedule: Q01DX005 (ip), vehicle: saline + alcohol 103 % of control | dose: 8.0 mg/kg/injection, schedule: Q01DX005 (ip), vehicle: saline + alcohol 103 % of control | dose: 16.0 mg/kg/injection, schedule: Q01DX005 (ip), vehicle: saline + alcohol 99 % of control | dose: 32.0 mg/kg/injection, schedule: Q01DX005 (ip), vehicle: saline + alcohol 99 % of control | dose: 64.0 mg/kg/injection, schedule: Q01DX005 (ip), vehicle: saline + alcohol 101 % of control

CCC[CH2][Sn]([CH2]CCN(C)C)([CH2]CCN(C)C)[CH2]CCN(C)C
inactive: [12] 100 % of control | [13] 107 % of control

[Cl][Sn]([O][Sn]([Cl])([c]1ccccc1)[CH]1CCCCC1)([c]1ccccc1)[CH]1CCCCC1 (centres undefined)
inactive: dose: 0.19 mg/kg/injection, schedule: Q01DX005 (ip), vehicle: saline 100 % of control | dose: 0.39 mg/kg/injection, schedule: Q01DX005 (ip), vehicle: saline 105 % of control | dose: 0.79 mg/kg/injection, schedule: Q01DX005 (ip), vehicle: saline 117 % of control

Nc1ccccc1N=C(CC(=O)c1ccco1)C(F)(F)F
inactive: dose: 6.25 mg/kg/injection, schedule: Q01DX009 (ip), vehicle: saline 99 % of control | dose: 25.0 mg/kg/injection, schedule: Q01DX009 (ip), vehicle: saline 91 % of control | [14] 88 % of control | [15] 105 % of control

CN1CCCN(C)C1c1cc(Cl)ccc1O
inactive: dose: 6.25 mg/kg/injection, schedule: Q01DX009 (ip), vehicle: saline sonified 90 % of control | dose: 12.5 mg/kg/injection, schedule: Q01DX009 (ip), vehicle: saline sonified 100 % of control | dose: 25.0 mg/kg/injection, schedule: Q01DX009 (ip), vehicle: saline sonified 90 % of control

CC1=NNC(=O)/C1=C/c1ccccc1Cl
inactive: dose: 50.0 mg/kg/injection, schedule: Q01DX009 (ip), vehicle: Klucel (hydroxypropylcellulose) (HPC) 104 % of control | dose: 100.0 mg/kg/injection, schedule: Q01DX009 (ip), vehicle: Klucel (hydroxypropylcellulose) (HPC) 105 % of control | dose: 200.0 mg/kg/injection, schedule: Q01DX009 (ip), vehicle: Klucel (hydroxypropylcellulose) (HPC) 112 % of control | dose: 400.0 mg/kg/injection, schedule: Q01DX009 (ip), vehicle: Klucel (hydroxypropylcellulose) (HPC) 113 % of control

COC(=O)C(CSC(c1ccccc1)(c1ccccc1)c1ccccc1)NC(=O)C(CSCc1ccccc1)NC(=O)CCNC(=O)OCc1ccccc1 (centres undefined) ({Cbz-βAla}-Cys(Bn)-Cys(Trt)-OMe; configuration not given here)
inactive: [7] 102 % of control | [8] 100 % of control | dose: 12.5 mg/kg/injection, schedule: Q01DX005 (ip), vehicle: Klucel (hydroxypropylcellulose) (HPC) 99 % of control | [9] 99 % of control | dose: 25.0 mg/kg/injection, schedule: Q01DX005 (ip), vehicle: Klucel (hydroxypropylcellulose) (HPC) 102 % of control | [10] 99 % of control | [16] 102 % of control | [11] 89 % of control | [17] 102 % of control | dose: 128.0 mg/kg/injection, schedule: Q01DX009 (ip), vehicle: water 86 % of control | dose: 200.0 mg/kg/injection, schedule: Q01DX005 (ip), vehicle: Klucel (hydroxypropylcellulose) (HPC) 103 % of control

[N-]=[N+]=NC1(N=[N+]=[N-])C(=O)Nc2ccc(Cl)cc2C1=O (centres undefined)
inactive: [16] 107 % of control | [17] 88 % of control

O=C(Nc1ccc(Cl)cc1C(F)(F)F)OCCCc1ccncc1
inactive: [18] 98 % of control | [14] 91 % of control | [15] 91 % of control

CCOC(=O)C1CCCCC1NC1CCCCC1C(=O)OCC (centres undefined)
inactive: dose: 34.5 mg/kg/injection, schedule: Q01DX009 (ip), vehicle: saline with Tween-80 105 % of control | [12] 120 % of control | [18] 103 % of control | [13] 117 % of control | [14] 112 % of control | dose: 138.0 mg/kg/injection, schedule: Q01DX009 (ip), vehicle: saline with Tween-80 107 % of control | dose: 200.0 mg/kg/injection, schedule: Q01DX009 (ip), vehicle: saline with Tween-80 120 % of control | [15] 108 % of control

O=C1CSCC(=O)OCCOCCOCCO1
inactive: dose: 100.0 mg/kg/injection, schedule: Q04DX003 (ip), vehicle: suspension in saline 104 % of control | dose: 200.0 mg/kg/injection, schedule: Q04DX003 (ip), vehicle: suspension in saline 101 % of control | dose: 400.0 mg/kg/injection, schedule: Q04DX003 (ip), vehicle: suspension in saline 101 % of control

CCc1nc(N)nc(N)c1-c1ccc(Cl)cc1.[O]=[Zn]
inactive: dose: 12.5 mg/kg/injection, schedule: Q04DX003 (ip), vehicle: Klucel (hydroxypropylcellulose) (HPC) 106 % of control | [4] 106 % of control | [5] 113 % of control | [6] 117 % of control
